Experimental data: patent US20240158446A1, “CYCLIC COMPOUND HAVING SELECTIVE INHIBITORY ACTION ON KRAS OVER HRAS AND NRAS” (CHUGAI SEIYAKU KABUSHIKI KAISHA, priority 2021, published 2024)
*1 amine or outer side, *2 acyl side, *3 side chain or, on linkers, in order; H or OH if unused. Where a SMILES comes first, the peptide text is derived from it. Bridges are numbered along the chain shown (N, C = ends). [ ]: non-standard residue; d: D form. The star is where a group is joined. hPhe(3-Cl-4-CF3) = N[C@@H](CCc1ccc(C(F)(F)F)c(Cl)c1)C(=O)O; NPrPhe(4-CF3) = CCCN[C@@H](Cc1ccc(C(F)(F)F)cc1)C(=O)O; X30 = C=CCCN([C@@H](Cc1ccc(C)cc1)C(=O)[*:2])[*:1]; NMeGly(cPent) = CN[C@H](C(=O)O)C1CCCC1; Aze(3S-Me) = C[C@H]1CN[C@@H]1C(=O)O; NMeAllylGly = C=CC[C@H](NC)C(=O)O; NEtLeu = CCN[C@@H](CC(C)C)C(=O)O; NMeD = CN[C@@H](CC(=O)O)C(=O)O; NMeL = CN[C@@H](CC(C)C)C(=O)O; NEtAla = CCN[C@@H](C)C(=O)O; Morpholide = C1CN(*)CCO1; NMeA = CN[C@@H](C)C(=O)O; dNMeA = CN[C@H](C)C(=O)O; Ac5c = NC1(C(=O)O)CCCC1; Aze = O=C(O)[C@@H]1CCN1; NEtG = CCNCC(=O)O; Sar = CNCC(=O)O

Tests used:
[1] = target: GDP-bound NRAS wild-type protein (Homo sapiens, UniProt P01111); experiment: Binding to NRAS by surface plasmon resonance (SPR), Single Cycle Kinetics; settings: SPR, GDP-bound NRAS wild-type protein vs GDP-bound KRAS wild-type protein
[2] = target: GDP-bound KRAS wild-type protein (Homo sapiens, UniProt P01116); experiment: Binding to KRAS by surface plasmon resonance (SPR), Single Cycle Kinetics; settings: SPR Single Cycle Kinetics, GDP-bound KRAS wild-type protein, 1:1 binding model; read-out: KRAS KD
[3] = target: GDP-bound HRAS wild-type protein (Homo sapiens, UniProt P01112); experiment: Binding to HRAS by surface plasmon resonance (SPR), Single Cycle Kinetics; settings: SPR, GDP-bound HRAS wild-type protein vs GDP-bound KRAS wild-type protein
GDP-bound HRAS wild-type protein, sequence (P01112 whole entry): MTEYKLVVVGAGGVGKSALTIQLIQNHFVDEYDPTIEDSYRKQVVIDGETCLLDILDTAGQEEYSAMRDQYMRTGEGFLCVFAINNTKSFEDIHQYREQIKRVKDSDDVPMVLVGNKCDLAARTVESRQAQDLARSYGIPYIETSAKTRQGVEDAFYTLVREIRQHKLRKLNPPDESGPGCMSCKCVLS

GDP-bound NRAS wild-type protein, sequence (P01111 whole entry): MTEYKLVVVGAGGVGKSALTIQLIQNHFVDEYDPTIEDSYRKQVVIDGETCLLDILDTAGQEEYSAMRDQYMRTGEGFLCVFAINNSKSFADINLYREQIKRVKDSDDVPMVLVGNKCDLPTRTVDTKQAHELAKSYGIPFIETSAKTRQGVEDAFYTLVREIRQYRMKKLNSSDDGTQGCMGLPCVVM
GDP-bound KRAS wild-type protein, sequence (P01116 whole entry): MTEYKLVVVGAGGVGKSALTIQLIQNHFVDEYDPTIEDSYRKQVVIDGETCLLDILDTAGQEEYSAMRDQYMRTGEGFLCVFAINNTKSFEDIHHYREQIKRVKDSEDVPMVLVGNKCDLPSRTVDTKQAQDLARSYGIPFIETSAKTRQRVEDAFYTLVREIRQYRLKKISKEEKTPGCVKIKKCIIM

| Structure (SMILES) | NRAS/KRAS (ratio of KD value for NRAS to KD value for KRAS) [1] | Kd [2] [nM] | HRAS/KRAS (ratio of KD value for HRAS to KD value for KRAS) [3] |
| --- | --- | --- | --- |
| C=CCCN1C(=O)[C@H](CC=C)N(C)C(=O)CN(C)C(=O)[C@H]([C@@H](C)CC)NC(=O)[C@H](CC(C)C)N(C)C(=O)C[C@@H](C(=O)N2CCOCC2)N(C)C(=O)[C@H](C2CCCC2)N(C)C(=O)C2(CCCC2)NC(=O)[C@@H]2CCCN2C(=O)[C@H](CCc2ccc(C(F)(F)F)c(Cl)c2)NC(=O)CN(C)C(=O)[C@@H]1Cc1ccc(C)cc1 [PP0140] ([NMeL]I[Sar][NMeAllylGly][X30][Sar][hPhe(3-Cl-4-CF3)]P[Ac5c][NMeGly(cPent)][NMeD]-Morpholide; lactam N-11) | C (A compound having a KD ratio of 0.1 or more and less than 3 is denoted as C) | 800 | B (a compound having 3 or more and less than 10 is denoted as B) |
| CCCN1C(=O)[C@@H]2[C@@H](C)CN2C(=O)[C@H](C)N(C)C(=O)[C@H]([C@@H](C)CC)NC(=O)[C@H](CC(C)C)N(C)C(=O)C[C@@H](C(=O)N2CCOCC2)N(C)C(=O)[C@H](C2CCCC2)N(C)C(=O)C2(CCCC2)NC(=O)[C@@H]2CCCN2C(=O)[C@H](CCc2ccc(C(F)(F)F)c(Cl)c2)NC(=O)CN(C)C(=O)[C@@H]1Cc1ccc(C(F)(F)F)cc1 [PP0141] ([NMeL]I[NMeA][Aze(3S-Me)][NPrPhe(4-CF3)][Sar][hPhe(3-Cl-4-CF3)]P[Ac5c][NMeGly(cPent)][NMeD]-Morpholide; lactam N-11) | C (A compound having a KD ratio of 0.1 or more and less than 3 is denoted as C) | 0.55 | B (a compound having 3 or more and less than 10 is denoted as B) |
| CCCN1C(=O)CN(C)C(=O)CN(C)C(=O)[C@H]([C@@H](C)CC)NC(=O)[C@H](CC(C)C)N(C)C(=O)C[C@@H](C(=O)N2CCOCC2)N(C)C(=O)[C@H](C2CCCC2)N(C)C(=O)C2(CCCC2)NC(=O)CN(CC)C(=O)[C@H](CCc2ccc(C(F)(F)F)c(Cl)c2)NC(=O)CN(C)C(=O)[C@@H]1Cc1ccc(C(F)(F)F)cc1 [PP0144] ([NMeL]I[Sar][Sar][NPrPhe(4-CF3)][Sar][hPhe(3-Cl-4-CF3)][NEtG][Ac5c][NMeGly(cPent)][NMeD]-Morpholide; lactam N-11) | B (a compound having 3 or more and less than 10 is denoted as B) | 0.24 | C (A compound having a KD ratio of 0.1 or more and less than 3 is denoted as C) |
| CCCN1C(=O)CN(C)C(=O)CN(CC)C(=O)[C@H]([C@@H](C)CC)NC(=O)[C@H](CC(C)C)N(C)C(=O)C[C@@H](C(=O)N2CCOCC2)N(C)C(=O)[C@H](C2CCCC2)N(C)C(=O)C2(CCCC2)NC(=O)[C@@H]2CCCN2C(=O)[C@H](CCc2ccc(C(F)(F)F)c(Cl)c2)NC(=O)CN(C)C(=O)[C@@H]1Cc1ccc(C(F)(F)F)cc1 [PP0145] ([NMeL]I[NEtG][Sar][NPrPhe(4-CF3)][Sar][hPhe(3-Cl-4-CF3)]P[Ac5c][NMeGly(cPent)][NMeD]-Morpholide; lactam N-11) | B (a compound having 3 or more and less than 10 is denoted as B) | 0.5 | B (a compound having 3 or more and less than 10 is denoted as B) |
| CCCN1C(=O)CN(C)C(=O)CN(C)C(=O)[C@H]([C@@H](C)CC)NC(=O)[C@H](CC(C)C)N(C)C(=O)C[C@@H](C(=O)N2CCOCC2)NC(=O)[C@H](C2CCCC2)N(C)C(=O)C2(CCCC2)NC(=O)[C@@H]2CCCN2C(=O)[C@H](CCc2ccc(C(F)(F)F)c(Cl)c2)NC(=O)CN(C)C(=O)[C@@H]1Cc1ccc(C(F)(F)F)cc1 [PP0146] ([NMeL]I[Sar][Sar][NPrPhe(4-CF3)][Sar][hPhe(3-Cl-4-CF3)]P[Ac5c][NMeGly(cPent)]D-Morpholide; lactam N-11) | B (a compound having 3 or more and less than 10 is denoted as B) | 0.42 | B (a compound having 3 or more and less than 10 is denoted as B) |
| CCCN1C(=O)CN(C)C(=O)CN(C)C(=O)[C@H]([C@@H](C)CC)NC(=O)[C@H](CC(C)C)N(C)C(=O)C[C@@H](C(=O)N2CCOCC2)N(C)C(=O)[C@H](C2CCCC2)N(C)C(=O)C2(CCCC2)NC(=O)[C@@H]2CCCN2C(=O)[C@H](CCc2ccc(C(F)(F)F)c(Cl)c2)NC(=O)[C@@H](C)N(C)C(=O)[C@@H]1Cc1ccc(C(F)(F)F)cc1 [PP0148] ([NMeL]I[Sar][Sar][NPrPhe(4-CF3)][dNMeA][hPhe(3-Cl-4-CF3)]P[Ac5c][NMeGly(cPent)][NMeD]-Morpholide; lactam N-11) | B (a compound having 3 or more and less than 10 is denoted as B) | 3.4 | B (a compound having 3 or more and less than 10 is denoted as B) |
| CCCN1C(=O)CN(C)C(=O)CN(C)C(=O)[C@H]([C@@H](C)CC)NC(=O)[C@H](CC(C)C)N(C)C(=O)C[C@@H](C(=O)N2CCOCC2)N(C)C(=O)[C@H](C2CCCC2)N(C)C(=O)[C@@H](C)NC(=O)[C@@H]2CCCN2C(=O)[C@H](CCc2ccc(C(F)(F)F)c(Cl)c2)NC(=O)CN(C)C(=O)[C@@H]1Cc1ccc(C(F)(F)F)cc1 [PP0150] ([NMeL]I[Sar][Sar][NPrPhe(4-CF3)][Sar][hPhe(3-Cl-4-CF3)]P[dA][NMeGly(cPent)][NMeD]-Morpholide; lactam N-11) | B (a compound having 3 or more and less than 10 is denoted as B) | 1.7 | C (A compound having a KD ratio of 0.1 or more and less than 3 is denoted as C) |
| CCCN1C(=O)[C@@H]2CCN2C(=O)[C@H](C)N(C)C(=O)[C@H]([C@@H](C)CC)NC(=O)[C@H](CC(C)C)N(CC)C(=O)C[C@@H](C(=O)N2CCOCC2)N(C)C(=O)[C@H](C2CCCC2)N(C)C(=O)C2(CCCC2)NC(=O)[C@@H]2CCCN2C(=O)[C@H](CCc2ccc(C(F)(F)F)c(Cl)c2)NC(=O)CN(C)C(=O)[C@@H]1Cc1ccc(C(F)(F)F)cc1 [PP0151] ([NEtLeu]I[NMeA][Aze][NPrPhe(4-CF3)][Sar][hPhe(3-Cl-4-CF3)]P[Ac5c][NMeGly(cPent)][NMeD]-Morpholide; lactam N-11) | C (A compound having a KD ratio of 0.1 or more and less than 3 is denoted as C) | 0.5 | C (A compound having a KD ratio of 0.1 or more and less than 3 is denoted as C) |
| CCCN1C(=O)[C@@H]2CCN2C(=O)[C@H](C)N(CC)C(=O)[C@H]([C@@H](C)CC)NC(=O)[C@H](CC(C)C)N(C)C(=O)C[C@@H](C(=O)N2CCOCC2)N(C)C(=O)[C@H](C2CCCC2)N(C)C(=O)C2(CCCC2)NC(=O)[C@@H]2CCCN2C(=O)[C@H](CCc2ccc(C(F)(F)F)c(Cl)c2)NC(=O)CN(C)C(=O)[C@@H]1Cc1ccc(C(F)(F)F)cc1 [PP0152] ([NMeL]I[NEtAla][Aze][NPrPhe(4-CF3)][Sar][hPhe(3-Cl-4-CF3)]P[Ac5c][NMeGly(cPent)][NMeD]-Morpholide; lactam N-11) | C (A compound having a KD ratio of 0.1 or more and less than 3 is denoted as C) | 2.8 | B (a compound having 3 or more and less than 10 is denoted as B) |
| CCCN1C(=O)[C@@H]2CCN2C(=O)[C@H](C)N(C)C(=O)[C@H]([C@@H](C)CC)NC(=O)[C@H](CC(C)C)N(C)C(=O)C[C@@H](C(=O)N2CCOCC2)N(C)C(=O)[C@H](C2CCCC2)N(C)C(=O)C2(CCCC2)NC(=O)[C@H](C)NC(=O)[C@H](CCc2ccc(C(F)(F)F)c(Cl)c2)NC(=O)CN(C)C(=O)[C@@H]1Cc1ccc(C(F)(F)F)cc1 [PP0153] ([NMeL]I[NMeA][Aze][NPrPhe(4-CF3)][Sar][hPhe(3-Cl-4-CF3)]A[Ac5c][NMeGly(cPent)][NMeD]-Morpholide; lactam N-11) | C (A compound having a KD ratio of 0.1 or more and less than 3 is denoted as C) | 0.33 | C (A compound having a KD ratio of 0.1 or more and less than 3 is denoted as C) |
| CCCN1C(=O)[C@@H]2CCN2C(=O)[C@H](C)N(C)C(=O)[C@H]([C@@H](C)CC)NC(=O)[C@H](CC(C)C)NC(=O)C[C@@H](C(=O)N2CCOCC2)N(C)C(=O)[C@H](C2CCCC2)N(C)C(=O)C2(CCCC2)NC(=O)[C@@H]2CCCN2C(=O)[C@H](CCc2ccc(C(F)(F)F)c(Cl)c2)NC(=O)CN(C)C(=O)[C@@H]1Cc1ccc(C(F)(F)F)cc1 [PP0154] (LI[NMeA][Aze][NPrPhe(4-CF3)][Sar][hPhe(3-Cl-4-CF3)]P[Ac5c][NMeGly(cPent)][NMeD]-Morpholide; lactam N-11) | C (A compound having a KD ratio of 0.1 or more and less than 3 is denoted as C) | 0.23 | B (a compound having 3 or more and less than 10 is denoted as B) |
| CCCN1C(=O)CN(C)C(=O)CNC(=O)[C@H]([C@@H](C)CC)NC(=O)[C@H](CC(C)C)N(C)C(=O)C[C@@H](C(=O)N2CCOCC2)N(C)C(=O)[C@H](C2CCCC2)N(C)C(=O)C2(CCCC2)NC(=O)[C@@H]2CCCN2C(=O)[C@H](CCc2ccc(C(F)(F)F)c(Cl)c2)NC(=O)CN(C)C(=O)[C@@H]1Cc1ccc(C(F)(F)F)cc1 [PP0155] ([NMeL]IG[Sar][NPrPhe(4-CF3)][Sar][hPhe(3-Cl-4-CF3)]P[Ac5c][NMeGly(cPent)][NMeD]-Morpholide; lactam N-11) | B (a compound having 3 or more and less than 10 is denoted as B) | 0.18 | C (A compound having a KD ratio of 0.1 or more and less than 3 is denoted as C) |
